Patent US10894784B2, “Heteroarylbenzimidazole compounds” (BAYER PHARMA AKTIENGESELLSCHAFT, priority 2015, dated 2021)

Biological target: TBK1 (Homo sapiens (Human), UniProt Q9UHD2)
Experiment: TBK1 low ATP kinase assay (in vitro assay 1)
Assay type: biochemical
Conditions: in vitro assay 1, read-out: TBK1 low ATP kinase assay IC50

Chain of TBK1 (Q9UHD2 whole entry): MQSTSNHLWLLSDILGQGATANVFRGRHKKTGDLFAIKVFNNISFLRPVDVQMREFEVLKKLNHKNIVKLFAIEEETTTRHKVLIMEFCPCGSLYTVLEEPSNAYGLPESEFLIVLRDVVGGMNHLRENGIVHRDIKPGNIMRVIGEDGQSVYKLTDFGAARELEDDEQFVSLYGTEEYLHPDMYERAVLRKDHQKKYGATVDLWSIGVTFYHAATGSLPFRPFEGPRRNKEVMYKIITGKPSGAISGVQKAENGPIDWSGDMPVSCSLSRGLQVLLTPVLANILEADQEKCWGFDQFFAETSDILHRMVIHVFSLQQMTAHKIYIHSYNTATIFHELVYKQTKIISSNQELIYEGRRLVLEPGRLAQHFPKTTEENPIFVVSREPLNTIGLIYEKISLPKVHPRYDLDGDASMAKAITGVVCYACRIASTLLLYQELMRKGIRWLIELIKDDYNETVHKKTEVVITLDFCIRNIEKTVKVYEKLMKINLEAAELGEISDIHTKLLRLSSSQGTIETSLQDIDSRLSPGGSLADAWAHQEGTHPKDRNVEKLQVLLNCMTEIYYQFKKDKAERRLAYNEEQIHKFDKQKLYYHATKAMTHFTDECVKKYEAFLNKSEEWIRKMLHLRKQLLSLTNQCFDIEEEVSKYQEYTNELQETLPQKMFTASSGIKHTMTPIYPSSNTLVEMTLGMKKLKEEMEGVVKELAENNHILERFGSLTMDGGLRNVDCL

IC50	Structure (SMILES)
510 nM	CN(C)c1cnc(-c2ccc3nc(Nc4cc(CN5CCN(C(=O)OC(C)(C)C)CC5)ccn4)[nH]c3c2)cn1 [Example 144.01, tert-butyl 4-{[2-({6-[5-(dimethylamino)pyrazin-2-yl]-1H-benzimidazol-2-yl}amino)pyridin-4-yl]methyl}piperazine-1-carboxylate]
26 nM	CC(c1ccnc(Nc2nc3ccc(-c4cnn(CC5(C)CC5)c4)cc3[nH]2)c1)N1CCN(C(=O)OC(C)(C)C)CC1 (single isomer, unassigned) [Example 68.01, tert-butyl 4-[(1R or 1S)-1-{2-[(6-{1-[(1-methylcyclopropyl)methyl]-1H-pyrazol-4-yl}-1H-benzimidazol-2-yl)amino]pyridin-4-yl}ethyl]piperazine-1-carboxylate]
27.5 nM	Cc1cc(-c2ccc3nc(Nc4cc(C(C)N5CCN(C(=O)C6CCC6)CC5)ccn4)[nH]c3c2)ncn1 (single isomer, unassigned) [Example 30.03.02.B, cyclobutyl{4-[(1S or 1R)-1-(2-{[6-(6-methylpyrimidin-4-yl)-1H-benzimidazol-2-yl]amino}pyridin-4-yl)ethyl]piperazin-1-yl}methanone]
3.47 nM	CC(c1ccnc(Nc2nc3ccc(-c4cc(C(F)(F)F)ncn4)cc3[nH]2)c1)N1CCN(C(=O)C2CC2)CC1 (racemic) [Example 29.01.02, (rac)-cyclopropyl(4-{1-[2-({6-[6-(trifluoromethyl)pyrimidin-4-yl]-1H-benzimidazol-2-yl}amino)pyridin-4-yl]ethyl}piperazin-1-yl)methanone]
2.9 nM	COc1c(C)ncnc1-c1ccc2nc(Nc3cc(C(C)N4CCN(C(=O)C5(C(F)(F)F)CC5)CC4)ccn3)[nH]c2c1 (centres unmarked) [Example 83.05, {4-[(1R or IS)-1-(2-{[6-(5-methoxy-6-methylpyrimidin-4-yl)-1H-benzimidazol-2-yl]amino}pyridin-4-yl)ethyl]piperazin-1-yl}[1-(trifluoromethyl)cyclopropyl]methanone]
100 nM	Cc1cc(-c2ccc3nc(Nc4cc(C(C)N5CCN(C(=O)OC(C)(C)C)CC5)ccn4)[nH]c3c2Cl)ncn1 (single isomer, unassigned) [Example 98.01, tert-butyl 4-[(1R or 1S)-1-(2-{[7-chloro-6-(6-methylpyrimidin-4-yl)-1H-benzimidazol-2-yl]amino}pyridin-4-yl)ethyl]piperazine-1-carboxylate]
57 nM	CC(C)(C)OC(=O)N1CCN(Cc2ccnc(Nc3nc4ccc(-c5ccnc(N6CCOCC6)c5)cc4[nH]3)c2)CC1 [Example 134.01, tert-butyl 4-{[2-({6-[2-(morpholin-4-yl)pyridin-4-yl]-1H-benzimidazol-2-yl}amino)pyridin-4-yl]methyl}piperazine-1-carboxylate]
7280 nM	Cc1c(-c2ccc3nc(Nc4cc(CN5CCN(C(=O)OC(C)(C)C)CC5)ccn4)[nH]c3c2)ncnc1C(F)(F)F [Example 183.01, tert-butyl 4-{[2-({6-[5-methyl-6-(trifluoromethyl)pyrimidin-4-yl]-1H-benzimidazol-2-yl}amino)pyridin-4-yl]methyl}piperazine-1-carboxylate]
57.3 nM	CC(C)(C)OC(=O)N1CCN(Cc2ccnc(Nc3nc4ccc(-c5ccnc(OCC6CC6)n5)cc4[nH]3)c2)CC1 [Example 62.01.01, tert-butyl 4-{[2-({6-[2-(cyclopropylmethoxy)pyrimidin-4-yl]-1H-benzimidazol-2-yl}amino)pyridin-4-yl]methyl}piperazine-1-carboxylate]
255 nM	COc1c(OCC2CC2)ncnc1-c1ccc2nc(Nc3cc(CN4CCN(C(=O)OC(C)(C)C)CC4)ccn3)[nH]c2c1 [Example 65.01.01, tert-butyl 4-{[2-({6-[6-(cyclopropylmethoxy)-5-methoxypyrimidin-4-yl]-1H-benzimidazol-2-yl}amino)pyridin-4-yl]methyl}piperazine-1-carboxylate]
38 nM	CN(c1cc(-c2ccc3nc(Nc4cc(CN5CCN(C(=O)OC(C)(C)C)CC5)ccn4)[nH]c3c2)ncn1)C1CCC1 [Example 156.01, tert-butyl 4-({2-[(6-{6-[cyclobutyl(methyl)amino]pyrimidin-4-yl}-1H-benzimidazol-2-yl)amino]pyridin-4-yl}methyl)piperazine-1-carboxylate]
43.4 nM	COc1cc(-c2ccc3nc(Nc4cc(CN5CCN(C(=O)C6CCC6)CC5)ccn4)[nH]c3c2)ccn1 [Example 02.04, cyclobutyl{4-[(2-{[6-(2-methoxypyridin-4-yl)-1H-benzimidazol-2-yl]amino}pyridin-4-yl)methyl]piperazin-1-yl}methanone]
3610 nM	Cc1c(-c2ccc3nc(Nc4cc(CN5CCN(C(=O)C6CC6)CC5)ccn4)[nH]c3c2)ccnc1OC(C)C [Example 11.01, cyclopropyl(4-{[2-({6-[3-methyl-2-(propan-2-yloxy)pyridin-4-yl]-1H-benzimidazol-2-yl}amino)pyridin-4-yl]methyl}piperazin-1-yl)methanone]

Further lines, the compound ahead of its results:

Structure (SMILES)	IC50
Cc1noc(-c2ccc3nc(Nc4cc(CN5CCN(c6ccncc6)CC5)ccn4)[nH]c3c2)n1 [Example 101.12, 6-(3-methyl-1,2,4-oxadiazol-5-yl)-N-(4-{[4-(pyridin-4-yl)piperazin-1-yl]methyl}pyridin-2-yl)-1H-benzimidazol-2-amine]	450 nM
CNc1cc(-c2ccc3nc(Nc4cc(CN5CCN(C(=O)C6CC6)CC5)ccn4)[nH]c3c2)ncn1 [Example 150.03, cyclopropyl(4-{[2-({6-[6-(methylamino)pyrimidin-4-yl]-1H-benzimidazol-2-yl}amino)pyridin-4-yl]methyl}piperazin-1-yl)methanone]	5.4 nM
COc1cnc(C)cc1-c1ccc2nc(Nc3cc(CN4CCN(C(=O)CC(F)(F)F)CC4)ccn3)[nH]c2c1 [Example 07.02, 3,3,3-trifluoro-1-{4-[(2-{[6-(5-methoxy-2-methylpyridin-4-yl)-1H-benzimidazol-2-yl]amino}pyridin-4-yl)methyl]piperazin-1-yl}propan-1-one]	277 nM
COc1cncnc1-c1ccc2nc(Nc3cc(CN4CCN(S(=O)(=O)CCC(F)(F)F)CC4)ccn3)[nH]c2c1 [Example 35.01.09, 6-(5-methoxypyrimidin-4-yl)-N-[4-({4-[(3,3,3-trifluoropropyl)sulfonyl]piperazin-1-yl}methyl)pyridin-2-yl]-1H-benzimidazol-2-amine]	40.6 nM
CCOc1cnc(C)cc1-c1ccc2nc(Nc3cc(CN4CCN(C(=O)C5CC5)CC4)ccn3)[nH]c2c1 [Example 09.02, cyclopropyl{4-[(2-{[6-(5-ethoxy-2-methylpyridin-4-yl)-1H-benzimidazol-2-yl]amino}pyridin-4-yl)methyl]piperazin-1-yl}methanone]	297 nM
Cc1cncnc1-c1ccc2nc(Nc3cc(CN4CCN(C(=O)C5CC5)CC4)ccn3)[nH]c2c1 [Example 184.03, cyclopropyl{4-[(2-{[6-(5-methylpyrimidin-4-yl)-1H-benzimidazol-2-yl]amino}pyridin-4-yl)methyl]piperazin-1-yl}methanone]	216 nM
O=C(C1CC1)N1CCN(Cc2ccnc(Nc3nc4ccc(-c5ncnc(NC6CCC6)c5F)cc4[nH]3)c2)CC1 [Example 194.03, (4-{[2-({6-[6-(cyclobutylamino)-5-fluoropyrimidin-4-yl]-1H-benzimidazol-2-yl}amino)pyridin-4-yl]methyl}piperazin-1-yl)(cyclopropyl)methanone]	49.4 nM
O=C(C1CC1)N1CCN(Cc2ccnc(Nc3nc4ccc(-c5cnc(Cl)nc5)cc4[nH]3)c2)CC1 [Example 45.02.02, {4-[(2-{[6-(2-chloropyrimidin-5-yl)-1H-benzimidazol-2-yl]amino}pyridin-4-yl)methyl]piperazin-1-yl}(cyclopropyl)methanone]	380 nM
Cc1c[nH]c(-c2ccc3nc(Nc4cc(CN5CCN(C(=O)C6CC6)CC5)ccn4)[nH]c3c2)n1 [Example 43.02, cyclopropyl{4-[(2-{[6-(4-methyl-1H-imidazol-2-yl)-1H-benzimidazol-2-yl]amino}pyridin-4-yl)methyl]piperazin-1-yl}methanone]	1840 nM
COc1nccc(-c2ccc3nc(Nc4cc(CN5CCN(C(=O)C6CC6)CC5)ccn4)[nH]c3c2)n1 [Example 25.01.05, cyclopropyl{4-[(2-{[6-(2-methoxypyrimidin-4-yl)-1H-benzimidazol-2-yl]amino}pyridin-4-yl)methyl]piperazin-1-yl}methanone]	64.5 nM
O=C(C1CC1)N1CCN(Cc2ccnc(Nc3nc4ccc(-c5ccnc(OCC6CC6)n5)cc4[nH]3)c2)CC1 [Example 62.01.04, cyclopropyl(4-{[2-({6-[2-(cyclopropylmethoxy)pyrimidin-4-yl]-1H-benzimidazol-2-yl}amino)pyridin-4-yl]methyl}piperazin-1-yl)methanone]	5.19 nM
COc1nccc(-c2ccc3nc(Nc4cc(CN5CCN(C(=O)C6CCC6)CC5)ccn4)[nH]c3c2)n1 [Example 25.01.02, cyclobutyl{4-[(2-{[6-(2-methoxypyrimidin-4-yl)-1H-benzimidazol-2-yl]amino}pyridin-4-yl)methyl]piperazin-1-yl}methanone]	218 nM
Cc1noc(-c2ccc3nc(Nc4cc(CN5CCN(c6c(Cl)cncc6Cl)CC5)ccn4)[nH]c3c2)n1 [Example 101.23, N-(4-{[4-(3,5-dichloropyridin-4-yl)piperazin-1-yl]methyl}pyridin-2-yl)-6-(3-methyl-1,2,4-oxadiazol-5-yl)-1H-benzimidazol-2-amine]	280 nM
O=C(C1CC1)N1CCN(Cc2ccnc(Nc3nc4ccc(-c5ncnc(NCC6CCC6)c5F)cc4[nH]3)c2)CC1 [Example 191.03]	94.8 nM
COc1cncnc1-c1ccc2nc(Nc3cc(CN4CCN(C(=O)N5CCOCC5)CC4)ccn3)[nH]c2c1 [Example 35.01.07, {4-[(2-{[6-(5-methoxypyrimidin-4-yl)-1H-benzimidazol-2-yl]amino}pyridin-4-yl)methyl]piperazin-1-yl}(morpholin-4-yl)methanone]	77.3 nM
Cc1noc(-c2ccc3nc(Nc4cc(CN5CCN(C(=O)CC(F)(F)F)C[C@H]5C)ccn4)[nH]c3c2)n1 [Example 16.03.02, 3,3,3-trifluoro-1-{(3R)-3-methyl-4-[(2-{[6-(3-methyl-1,2,4-oxadiazol-5-yl)-1H-benzimidazol-2-yl]amino}pyridin-4-yl)methyl]piperazin-1-yl}propan-1-one]	63.1 nM
